Laboratory results reported in ChEMBL document CHEMBL3137667, “[Drug-induced liver injury; fourteenth updated edition of the bibliographic database of liver injuries and related drugs]” (Gastroenterol Clin Biol, 2004).

What was measured:
[1] = Highest frequency of moderate liver toxicity observed during clinical trials, expressed as a percentage. [column '% BIOL' in source]; settings: human
[2] = Highest frequency of acute liver toxicity observed during clinical trials, expressed as a percentage. [column '% AIGUE' in source]; settings: human
[3] = Presence of at least one case with successful reintroduction. [column 'REINT' in source]; settings: human
[4] = Times to onset, minimal and maximal, observed in the indexed observations. [column 'DELAI' in source]; settings: human
[5] = human, serum
[6] = human, serum; remark: listed apart in the source
[7] = human
[8] = human; remark: listed apart in the source
[9] = human; remark: listed apart in the source
[10] = human, serum, 4383 h
[11] = human; remark: listed apart in the source
[12] = human; remark: listed apart in the source
[13] = human; remark: listed apart in the source
[14] = human; remark: listed apart in the source
[15] = human; remark: listed apart in the source
[16] = human; remark: listed apart in the source
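For Hepatotoxicity (association with vascular disease) in this document: count of indexed literature references reporting vascular liver injury in humans, e.g. peliosis hepatitis, hepatic veno-occlusive disease or Budd-Chiari syndrome.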
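For Hepatotoxicity (benign tumour) in this document: value is a count of indexed literature references citing a benign tumour confirmed by histopathology.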
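For Hepatotoxicity (choleostasis) in this document: human cholestatic liver injury, shown by histopathology or by peak ALT or AST elevation over alkaline phosphatase ratio below 2, value counts indexed literature reports.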
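For Hepatotoxicity (chronic liver disease) in this document: chronic liver injury confirmed by histopathology or persistently raised serum aminotransferase activity beyond 6 months, value given as the count of indexed literature references.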
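For Hepatotoxicity (cirrhosis) in this document: value is a count of indexed literature references reporting cirrhosis confirmed by histopathology.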
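For Hepatotoxicity (cytolytic) in this document: human cytolytic liver injury, shown by histopathology or by a ratio above 5 of peak ALT or AST elevation to alkaline phosphatase elevation, value counts indexed references.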
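For Hepatotoxicity (granulomatous hepatitis) in this document: value is a count of indexed literature references reporting granulomatous liver disease confirmed by histopathology.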
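For Hepatotoxicity (malignant tumour) in this document: malignant tumour confirmed by histopathology, value gives the count of indexed literature references reporting it.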
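For Hepatotoxicity (severe hepatitis) in this document: human clinical data: severe hepatitis, meaning potentially life-threatening liver failure or clinically observed cases, the value counts how many indexed literature references report it.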
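For Hepatotoxicity (steatosis) in this document: steatosis confirmed by histopathology, value is the count of indexed references.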

Compound | Hepatotoxicity (moderate) [1] [%] | Hepatotoxicity (acute) [2] [%] | Hepatotoxicity (successful reintroduction) [3] | Hepatotoxicity (time to onset) [4] | Hepatotoxicity (moderate) [5] | Hepatotoxicity (acute) [6] | Hepatotoxicity (cytolytic) [7] | Hepatotoxicity (choleostasis) [8] | Hepatotoxicity (severe hepatitis) [9] | Hepatotoxicity (chronic liver disease) [10] | Hepatotoxicity (cirrhosis) [11] | Hepatotoxicity (granulomatous hepatitis) [12] | Hepatotoxicity (association with vascular disease) [13] | Hepatotoxicity (steatosis) [14] | Hepatotoxicity (malignant tumour) [15] | Hepatotoxicity (benign tumour) [16] | other results
O=C(O)CCC(=O)c1ccc(-c2ccccc2)cc1 [FENBUFEN] | 25 | 0 | yes | 10 days - 2 weeks | 7 | 5 | 1 | 2 | 0 | 0 | 0 | 0 | 0 | 0 | 0 | 0 | 
Cc1nccn1CC1CCc2c(c3ccccc3n2C)C1=O (stereo not drawn) [ONDANSETRON] | 33 | 0 | yes | 8 days - 9 days | 23 | 1 | 0 | 0 | 0 | 0 | 0 | 0 | 0 | 0 | 0 | 0 | 
CCc1c(C)[nH]c2c1C(=O)C(CN1CCOCC1)CC2 (stereo not drawn) [MOLINDONE] | 0 | 0 | yes | 1 month | 2 | 1 | 1 | 1 | 0 | 0 | 0 | 0 | 0 | 0 | 0 | 0 | 
O=C1NS(=O)(=O)c2ccccc21 [SACCHARIN] |  |  | yes | 2 weeks - 2 months | 0 | 1 |  |  |  | 0 | 0 |  | 0 | 0 | 0 | 0 | Hepatotoxicity (moderate) ([1]; Liver): 0%; Hepatotoxicity (acute) ([2]; Liver): 0%; Hepatotoxicity (cytolytic) ([7]; Liver): 1; Hepatotoxicity (choleostasis) ([8]; Liver): 0; Hepatotoxicity (severe hepatitis) ([9]; Liver): 0; Hepatotoxicity (granulomatous hepatitis) ([12]; Liver): 0
CN(C)C(=N)N=C(N)N [METFORMIN] |  |  | yes | 1 week - 17 months | 1 | 10 |  |  |  | 0 | 0 |  | 0 | 0 | 0 | 0 | Hepatotoxicity (moderate) ([1]; Liver): 0%; Hepatotoxicity (acute) ([2]; Liver): 0%; Hepatotoxicity (cytolytic) ([7]; Liver): 3; Hepatotoxicity (choleostasis) ([8]; Liver): 6; Hepatotoxicity (severe hepatitis) ([9]; Liver): 0; Hepatotoxicity (granulomatous hepatitis) ([12]; Liver): 0
O=C1c2ccccc2C(=O)C1c1ccc(F)cc1 [FLUINDIONE] | 0 | 0 | yes | 1 week - 3 months | 0 | 7 | 5 | 1 | 0 | 0 | 0 | 0 | 0 | 0 | 0 | 0 | 
CC(NCCc1ccc(O)cc1)C(O)c1ccc(O)cc1 (stereo not drawn) [RITODRINE] | 40 | 0.9 | yes | 4 days - 9 weeks | 6 | 6 | 6 | 1 | 0 | 0 | 0 | 0 | 0 | 0 | 0 | 0 | 
CC[C@]1(O)CC[C@H]2[C@@H]3CCC4=CC(=O)CC[C@@H]4[C@H]3CC[C@@]21C [NORETHANDROLONE] | 24 | 0 | yes | 2 weeks - 4.5 years | 3 | 11 | 0 | 6 | 2 | 0 | 0 | 0 | 3 | 0 | 1 | 2 | 
